How the values were obtained:
[1] = system: S. aureus DSM 20231; test: Bliss interaction score (quartile over a dose matrix) (fitness difference); higher = more antagonism (negative = synergy)
Method in brief: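 Combination data were used to infer fitness under each single drug. Fitness is the OD595 at entry into stationary phase divided by the robust mean of the plate's no-drug wells, with a cap of 1. The Bliss score is the observed minus the expected product fitness, summarised by quartiles over technical, biological and donor/recipient replicates.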

[2] = system: S. aureus DSM 20231; test: fitness (endpoint OD595 vs no drug) (fraction); higher = more growth
Method in brief: (§1)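 With the first reading as background, OD595 was measured every 30 min for 14 h in 384-well plates kept at 37 °C and inoculated at OD595 0.01. TSB, LB Lennox or CY was the medium. Fitness is the optical density at the transition into stationary phase divided by the robust mean of no-drug control wells, with a cap of 1.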

[3] = system: S. aureus Newman; test: as above
Method in brief: as §1

[4] = system: S. pneumoniae D39V; test: as above
Method in brief: as §1

[5] = first compound 0.0156 µg/mL, partner 0.1875 µg/mL
[6] = first compound 0.0156 µg/mL, partner 0.375 µg/mL
[7] = first compound 0.0156 µg/mL, partner 0.75 µg/mL
[8] = first compound 0.0312 µg/mL, partner 0.1875 µg/mL
[9] = first compound 0.0312 µg/mL, partner 0.375 µg/mL
[10] = first compound 0.0312 µg/mL, partner 0.75 µg/mL
[11] = first compound 0.0625 µg/mL, partner 0.1875 µg/mL
[12] = first compound 0.0625 µg/mL, partner 0.375 µg/mL
[13] = first compound 0.0625 µg/mL, partner 0.75 µg/mL
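Throughout, for Bliss interaction score (quartile over a dose matrix): first quartile when negative (synergy) and third quartile when positive (antagonism).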

CO[C@@]12[C@H](COC(N)=O)C3=C(C(=O)C(C)=C(N)C3=O)N1C[C@@H]1N[C@@H]12 [MitomycinC] + Cc1c(Cl)cccc1Nc1ccccc1C(=O)O [Tolfenamic]
Bliss interaction score [1]: -0.273

CC[C@H](C)[C@H](N)C1=N[C@H](C(=O)N[C@@H](CC(C)C)C(=O)N[C@H](CCC(=O)O)C(=O)N[C@H](C(=O)N[C@H]2CCCCNC(=O)[C@H](CC(N)=O)NC(=O)[C@@H](CC(=O)O)NC(=O)[C@H](Cc3cnc[nH]3)NC(=O)[C@@H](Cc3ccccc3)NC(=O)[C@H]([C@@H](C)CC)NC(=O)[C@@H](CCCN)NC2=O)[C@@H](C)CC)CS1 [Bacitracin] + CCCSc1nc(N[C@@H]2C[C@H]2c2ccc(F)c(F)c2)c2nnn([C@@H]3C[C@H](OCCO)[C@@H](O)[C@H]3O)c2n1 [Ticagrelor]
Bliss interaction score ([1]; main component drawn): -0.27

CO[C@@]12[C@H](COC(N)=O)C3=C(C(=O)C(C)=C(N)C3=O)N1C[C@@H]1N[C@@H]12 [MitomycinC] + COc1ccc(CCN(C)CCCC(C#N)(c2ccc(OC)c(OC)c2)C(C)C)cc1OC [Verapamil]
Bliss interaction score [1]: 0.195

CC(C)(O)c1ccccc1CC[C@@H](SCC1(CC(=O)O)CC1)c1cccc(/C=C/c2ccc3ccc(Cl)cc3n2)c1 [Montelukast] + CCC(C)C1C(=O)NC(=C)C(=O)NC(C(=O)NC(CSCC(C(=O)N1)NC(=O)/C(=C/C)/NC(=O)C(C(C)CC)N)C(=O)NC2C(SCC(NC(=O)CNC(=O)C3CCCN3C2=O)C(=O)NC(CCCCN)C(=O)NC4C(SCC(NC(=O)CNC(=O)C(NC(=O)C(NC(=O)C(NC(=O)CNC4=O)C)CC(C)C)CCSC)C(=O)NC(CC(=O)N)C(=O)NC(CCSC)C(=O)NC(CCCCN)C(=O)NC5C(SCC6C(=O)NC(C(=O)NC(CSC(C(C(=O)N6)NC(=O)C(NC5=O)C)C)C(=O)NC(CO)C(=O)NC(C(C)CC)C(=O)NC(CC7=CN=CN7)C(=O)NC(C(C)C)C(=O)NC(=C)C(=O)NC(CCCCN)C(=O)O)CC8=CN=CN8)C)C)C)CC(C)C [Nisin]
Bliss interaction score ([1]; main component drawn): 0.297

CN[C@@H]1[C@H](O)[C@H](NC)[C@H]2O[C@@]3(O)C(=O)C[C@@H](C)O[C@H]3O[C@@H]2[C@H]1O [Spectinomycin] + Cc1c(Cl)cccc1Nc1ccccc1C(=O)O [Tolfenamic]
Bliss interaction score [1]: 0.145

CO[C@@H]1[C@@H](OC(N)=O)[C@@H](O)[C@H](Oc2ccc3c(O)c(NC(=O)c4ccc(O)c(CC=C(C)C)c4)c(=O)oc3c2C)OC1(C)C [Novobiocin] + CCCSc1nc(N[C@@H]2C[C@H]2c2ccc(F)c(F)c2)c2nnn([C@@H]3C[C@H](OCCO)[C@@H](O)[C@H]3O)c2n1 [Ticagrelor]
Bliss interaction score [1]: 0.177

CN(Cc1cnc2nc(N)nc(N)c2n1)c1ccc(C(=O)N[C@@H](CCC(=O)O)C(=O)O)cc1 [Methotrexate] + CC1(C)S[C@@H]2[C@H](NC(=O)Cc3ccccc3)C(=O)N2[C@H]1C(=O)O [PenicillinG]
Bliss interaction score [1]: -0.169

CC(C)Cc1ccc(C(C)C(=O)O)cc1 (stereo not drawn) [Ibuprofen] + COc1cc(Cc2cnc(N)nc2N)cc(OC)c1OC [Trimethoprim]
Bliss interaction score [1]: -0.145

CC[C@H](c1ccc(O)cc1)[C@@H](CC)c1ccc(O)cc1 [Hexestrol] + CN(C)C(=O)C(CCN1CCC(O)(c2ccc(Cl)cc2)CC1)(c1ccccc1)c1ccccc1 [Loperamide]
Bliss interaction score [1]: -0.456

CN[C@@H]1[C@H](O[C@H]2[C@H](O[C@H]3[C@H](O)[C@@H](O)[C@H](N=C(N)N)[C@@H](O)[C@@H]3N=C(N)N)O[C@@H](C)[C@]2(O)C=O)O[C@@H](CO)[C@H](O)[C@H]1O [Streptomycin] + CCCSc1nc(N[C@@H]2C[C@H]2c2ccc(F)c(F)c2)c2nnn([C@@H]3C[C@H](OCCO)[C@@H](O)[C@H]3O)c2n1 [Ticagrelor]
Bliss interaction score [1]: -0.259

CO[C@@]12[C@H](COC(N)=O)C3=C(C(=O)C(C)=C(N)C3=O)N1C[C@@H]1N[C@@H]12 [Mitomycin C] + CN[C@H](CC(C)C)C(=O)N[C@H]1C(=O)N[C@@H](CC(N)=O)C(=O)N[C@H]2C(=O)N[C@H]3C(=O)N[C@H](C(=O)N[C@H](C(=O)O)c4cc(O)cc(O)c4-c4cc3ccc4O)[C@H](O)c3ccc(c(Cl)c3)Oc3cc2cc(c3O[C@@H]2O[C@H](CO)[C@@H](O)[C@H](O)[C@H]2O[C@H]2C[C@](C)(N)[C@H](O)[C@H](C)O2)Oc2ccc(cc2Cl)[C@H]1O [Vancomycin]
fitness [2, 5]: 0.741 | fitness [2, 6]: 0.719 | fitness [2, 7]: 0.708 | fitness [2, 8]: 0.705 | fitness [2, 9]: 0.762 | fitness [2, 10]: 0.751 | fitness [2, 11]: 0.592 | fitness [2, 12]: 0.624 | fitness [2, 13]: 0.624 | fitness [3, 5]: 0.747 | fitness [3, 6]: 0.708 | fitness [3, 7]: 0.733 | fitness [3, 8]: 0.719 | fitness [3, 9]: 0.684 | fitness [3, 10]: 0.65 | fitness [3, 11]: 0.56 | fitness [3, 12]: 0.415 | fitness [3, 13]: 0.411 | fitness ([4]; first compound 0.001075 µg/mL, partner 0.125 µg/mL): 0.928 | fitness ([4]; first compound 0.001075 µg/mL, partner 0.25 µg/mL): 0.629 | fitness ([4]; first compound 0.001075 µg/mL, partner 0.5 µg/mL): 0.208 | fitness ([4]; first compound 0.002 µg/mL, partner 0.03125 µg/mL): 0.951 | fitness ([4]; first compound 0.002 µg/mL, partner 0.0625 µg/mL): 0.877 | fitness ([4]; first compound 0.002 µg/mL, partner 0.125 µg/mL): 0.745 | fitness ([4]; first compound 0.00215 µg/mL, partner 0.125 µg/mL): 0.869 | fitness ([4]; first compound 0.00215 µg/mL, partner 0.25 µg/mL): 0.68 | fitness ([4]; first compound 0.00215 µg/mL, partner 0.5 µg/mL): 0.202 | fitness ([4]; first compound 0.004 µg/mL, partner 0.03125 µg/mL): 0.846 | fitness ([4]; first compound 0.004 µg/mL, partner 0.0625 µg/mL): 0.836 | fitness ([4]; first compound 0.004 µg/mL, partner 0.125 µg/mL): 0.667 | fitness ([4]; first compound 0.0043 µg/mL, partner 0.125 µg/mL): 0.863 | fitness ([4]; first compound 0.0043 µg/mL, partner 0.25 µg/mL): 0.592 | fitness ([4]; first compound 0.0043 µg/mL, partner 0.5 µg/mL): 0.206 | fitness ([4]; first compound 0.008 µg/mL, partner 0.03125 µg/mL): 0.727 | fitness ([4]; first compound 0.008 µg/mL, partner 0.0625 µg/mL): 0.732 | fitness ([4]; first compound 0.008 µg/mL, partner 0.125 µg/mL): 0.629

O=c1[nH]cc(F)c(=O)[nH]1 [Fluorouracil] + CN(C)C(=O)C(CCN1CCC(O)(c2ccc(Cl)cc2)CC1)(c1ccccc1)c1ccccc1 [Loperamide]
Bliss interaction score [1]: 0.195

C=C1/C(=C\C=C2/CCC[C@]3(C)[C@@H]([C@H](C)CCCC(C)C)CC[C@@H]23)C[C@@H](O)C[C@@H]1O [Alfacalcidol] + O=C1CN(/N=C/c2ccc([N+](=O)[O-])o2)C(=O)N1 [Nitrofurantoin]
Bliss interaction score [1]: 0.185

Reference: the supplement of paper PMC10627819
